Reference: patent publication US20250340577A1, “BETA-LACTOMASE INHIBITORS AND USES THEREOF” (Case Western Reserve University, priority 2021, published 2025)
Where two headings read alike, the source gives them in different places.

Tests used:
[1] = system: K. pneumoniae AR-BANK #0098 (KPC-2); type: in vivo; conditions: for T > MIC / Time High / Time Low: female, ICR, mouse, in vivo, iv
Description: A single dose PK study with MB_076 has been conducted to evaluate antibiotic exposure over time in plasma samples and thigh homogenates following a single dose IV administration in K. pneumoniae AR-BANK #0098 (KPC-2) thigh infection model with neutropenic female ICR mice. Among the PK parameters, t1/2, C0, AUClast, AUCINF, Vss and CL were evaluated (Table 7), while for PD parameters, C0/MIC, AUClast/MIC and T>MIC were calculated (Table 8). In particular, the % time over the minimum inhibitory concentration (T>MIC) was calculated for all dose groups to determine the impact of MB076 efficacy in this animal model. Plots of concentration in plasma and thigh homogenate versus time were created and the linearity of the resulting PK parameters was assessed.

K. pneumoniae 427 = test: MIC with cefepime, agar microdilution, CLSI; type: cell-based; conditions: compound fixed at 4 ug/ml; TEM-1, SHV-1, CTX-M-3
Outline: (§1)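 Fixed 4 ug/ml compound + cefepime; agar microdilution, CLSI.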

K. pneumoniae ST258 B5 = test: MIC with cefepime, agar microdilution, CLSI; type: cell-based; conditions: compound fixed at 4 ug/ml; KPC-2
Outline: as §1

K. pneumoniae 34700 = test: MIC with cefepime, agar microdilution, CLSI; type: cell-based; conditions: compound fixed at 4 ug/ml; CTX-M-15, SHV, TEM
Outline: as §1

E. coli pLTCF1 = test: MIC with cefepime, agar microdilution, CLSI; type: cell-based; conditions: compound fixed at 4 ug/ml; CTX-M group 9
Outline: as §1

E. coli DH10B pBC-SK P99 = test: MIC with cefepime, agar microdilution, CLSI; type: cell-based; conditions: compound fixed at 4 ug/ml
Outline: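 Test compound kept at 4 ug/ml throughout, combined with cefepime. MICs were read by agar microdilution according to CLSI.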

[2] = system: Klebsiella pneumonia/FDA-CDC AR-BANK#0098; test: MIC of MB076 alone or in combination with cefepime or meropenem; type: cell-based; conditions: Klebsiella pneumoniae; single agent; read-out: MIC
Description: (§2) MICs were determined by the Agar microdilution method, following CLSI guidelines. Compounds were tested at fixed concentration of 4 ug/ml in combination with cefepime.

[3] = system: Klebsiella pneumonia/FDA-CDC AR-BANK#0097; test: as above; type: cell-based; conditions: Klebsiella pneumoniae; single agent; read-out: MIC
Description: as §2

[4] = system: Klebsiella pneumonia/BAA-1705; test: as above; type: cell-based; conditions: Klebsiella pneumoniae, BAA1705; single agent; read-out: MIC
Description: as §2

`Nc1nnc(SCC(=O)NC(Cn2cc(C(=O)O)nn2)B(O)O)s1` (centres unmarked) [MB076] was tested, and the “T > MIC” value ([1]; 12.5 mg/kg) was 1.69%, the “Time High” value ([1]; 12.5 mg/kg) was 0.40 h and the “Time Low” value ([1]; 12.5 mg/kg) was 23.60 h. For the same molecule, the “T > MIC” value ([1]; 12.5 mg/kg, 24 h) was 0.24%, the “Time High” value ([1]; 12.5 mg/kg, 24 h) was 0.06 h and the “Time Low” value ([1]; 12.5 mg/kg, 24 h) was 23.94 h. The “T > MIC” value ([1]; 50 mg/kg) was 1.75%, the “Time High” value ([1]; 50 mg/kg) was 0.42 h and the “T > MIC” value ([1]; 50 mg/kg, 24 h) was 3.89%. For the same molecule, the “Time High” value ([1]; 50 mg/kg, 24 h) was 0.93 h, the “T > MIC” value ([1]; 100 mg/kg) was 2.72% and the “Time High” value ([1]; 100 mg/kg) was 0.65 h. For the same molecule, the “Time Low” value ([1]; 100 mg/kg) was 23.35 h, the “T > MIC” value ([1]; 100 mg/kg, 24 h) was 4.51% and the “Time High” value ([1]; 100 mg/kg, 24 h) was 1.08 h. The “Time Low” value ([1]; 100 mg/kg, 24 h) was 22.92 h, the AUClast/MIC ([1]; plasma, 12.5 mg/kg IV) was 1.77 h and the AUClast/MIC ([1]; plasma, 25 mg/kg IV) was 4.41 h. It also gave an AUClast/MIC ([1]; plasma, 50 mg/kg IV) of 9.75 h, an AUClast/MIC ([1]; plasma, 100 mg/kg IV) of 25.81 h and an AUClast/MIC ([1]; thigh, 12.5 mg/kg IV) of 0.25 h. The AUClast/MIC ([1]; thigh, 25 mg/kg IV) was 0.43 h, the AUClast/MIC ([1]; thigh, 50 mg/kg IV) was 1.56 h and the AUClast/MIC ([1]; thigh, 100 mg/kg IV) was 4.30 h. The MIC of cefepime in combination with compound (K. pneumoniae 427) was under 0.25 µg/mL, the MIC of cefepime in combination with compound (K. pneumoniae ST258 B5) was 8 µg/mL and the MIC of cefepime in combination with compound (K. pneumoniae 34700) was 1 µg/mL. For the same molecule, the MIC of cefepime in combination with compound (E. coli pLTCF1) was under 0.25 µg/mL, the MIC of cefepime in combination with compound (E. coli DH10B pBC-SK P99) was under 0.25 µg/mL and the MIC [2] was over 32 µg/mL. The MIC [3] was over 32 µg/mL and the MIC [4] was over 32 µg/mL.
